For 15 compounds, IC50, CC50 and EC50 results are on record in ChEMBL document CHEMBL1201862, “PubChem BioAssay data set” (2004).

One may read the IC50 as the point on the concentration scale where inhibition reaches its midpoint. The term CC50 denotes the concentration at which the toxic effect on the cells reaches its halfway point. Broadly, the EC50 is the concentration needed to bring the measured effect to its halfway point.

Calls of active or inactive are those of the source.

For test [1], the target named is G-protein coupled receptor 55 (Homo sapiens, UniProt Q9Y2T6). Put plainly: GPR55 antagonists blocking LPI-driven arrestin recruitment, primary screen, imaging, U2OS, beta-arrestin-GFP, LPI agonist (AID 2013).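 Also: antagonist potency measured as reduced agonist-driven arrestin aggregation.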 It counts as functional.
The nature of test [2]: A Cell Based Secondary Assay To Explore Cytotoxicity of Compounds that Sensitize Mycobacterium Tuberculosis to Beta-Lactam Antibiotics. The test is classed as functional.
The target of a further test is T1, Caspase-3 (Homo sapiens, UniProt P42574).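 Also: Dose-response selectivity test against caspase-3 for candidate inhibitors of sentrin-specific proteases (SENPs).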
T1 sequence (P42574 whole entry): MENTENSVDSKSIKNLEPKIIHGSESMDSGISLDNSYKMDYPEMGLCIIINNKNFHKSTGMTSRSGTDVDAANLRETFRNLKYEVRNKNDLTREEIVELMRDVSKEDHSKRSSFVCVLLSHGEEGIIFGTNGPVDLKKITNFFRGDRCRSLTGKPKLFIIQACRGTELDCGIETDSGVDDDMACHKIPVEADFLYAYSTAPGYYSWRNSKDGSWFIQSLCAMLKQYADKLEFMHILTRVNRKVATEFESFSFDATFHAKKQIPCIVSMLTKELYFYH
It counts as functional.

Test [3] addresses T2, Sentrin-specific protease 6 (Homo sapiens, UniProt Q9GZR1).
T2 sequence (Q9GZR1 whole entry): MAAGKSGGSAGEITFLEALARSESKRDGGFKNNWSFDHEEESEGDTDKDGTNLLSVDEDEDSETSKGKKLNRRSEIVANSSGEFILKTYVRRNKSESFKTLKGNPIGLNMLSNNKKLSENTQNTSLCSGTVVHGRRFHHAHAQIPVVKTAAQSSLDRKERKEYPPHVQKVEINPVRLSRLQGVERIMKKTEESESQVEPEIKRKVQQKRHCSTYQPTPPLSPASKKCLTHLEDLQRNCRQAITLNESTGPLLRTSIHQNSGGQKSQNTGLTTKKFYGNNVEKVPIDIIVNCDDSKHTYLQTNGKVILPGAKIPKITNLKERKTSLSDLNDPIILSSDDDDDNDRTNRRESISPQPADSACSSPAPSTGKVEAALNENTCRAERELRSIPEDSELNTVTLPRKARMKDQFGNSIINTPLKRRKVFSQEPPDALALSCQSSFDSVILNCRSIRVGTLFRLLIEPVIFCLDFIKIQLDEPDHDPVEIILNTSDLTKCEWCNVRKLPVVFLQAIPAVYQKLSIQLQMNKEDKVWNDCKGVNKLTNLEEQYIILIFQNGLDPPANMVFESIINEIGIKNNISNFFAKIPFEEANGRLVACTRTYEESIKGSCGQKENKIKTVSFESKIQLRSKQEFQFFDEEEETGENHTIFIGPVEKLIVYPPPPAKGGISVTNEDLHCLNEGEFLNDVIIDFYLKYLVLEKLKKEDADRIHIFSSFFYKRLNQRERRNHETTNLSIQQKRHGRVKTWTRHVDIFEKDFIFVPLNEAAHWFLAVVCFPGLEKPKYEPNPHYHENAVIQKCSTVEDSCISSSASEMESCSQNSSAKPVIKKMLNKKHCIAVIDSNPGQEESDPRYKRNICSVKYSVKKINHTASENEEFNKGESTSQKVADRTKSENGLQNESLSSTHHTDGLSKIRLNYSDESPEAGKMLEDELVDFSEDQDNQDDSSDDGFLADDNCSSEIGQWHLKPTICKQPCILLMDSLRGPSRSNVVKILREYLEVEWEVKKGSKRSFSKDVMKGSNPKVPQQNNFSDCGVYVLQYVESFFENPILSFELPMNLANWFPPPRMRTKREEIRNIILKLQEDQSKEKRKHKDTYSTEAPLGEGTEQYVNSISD
The test is classed as functional.

The subject of a further test is H4. Put plainly: Luminescence Cell-Based Dose Response HTS to Identify Activators of 5'UTR Stem-Loop Driven Prion Protein mRNA Translation in H4 Neuroglioblastoma Cells. [Related pubchem assays: 1829 (Project Summary), 1814 (Primary HTS)]. The test is classed as functional. The settings on record: Homo sapiens.
Test [4] concerns the target T3, Sentrin-specific protease 7 (Homo sapiens, UniProt Q9BQF6).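 Also: Luminescence-based dose-response confirmation of ultra-high-throughput screening hits, measuring inhibition of SENP7.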
T3 sequence (Q9BQF6 whole entry): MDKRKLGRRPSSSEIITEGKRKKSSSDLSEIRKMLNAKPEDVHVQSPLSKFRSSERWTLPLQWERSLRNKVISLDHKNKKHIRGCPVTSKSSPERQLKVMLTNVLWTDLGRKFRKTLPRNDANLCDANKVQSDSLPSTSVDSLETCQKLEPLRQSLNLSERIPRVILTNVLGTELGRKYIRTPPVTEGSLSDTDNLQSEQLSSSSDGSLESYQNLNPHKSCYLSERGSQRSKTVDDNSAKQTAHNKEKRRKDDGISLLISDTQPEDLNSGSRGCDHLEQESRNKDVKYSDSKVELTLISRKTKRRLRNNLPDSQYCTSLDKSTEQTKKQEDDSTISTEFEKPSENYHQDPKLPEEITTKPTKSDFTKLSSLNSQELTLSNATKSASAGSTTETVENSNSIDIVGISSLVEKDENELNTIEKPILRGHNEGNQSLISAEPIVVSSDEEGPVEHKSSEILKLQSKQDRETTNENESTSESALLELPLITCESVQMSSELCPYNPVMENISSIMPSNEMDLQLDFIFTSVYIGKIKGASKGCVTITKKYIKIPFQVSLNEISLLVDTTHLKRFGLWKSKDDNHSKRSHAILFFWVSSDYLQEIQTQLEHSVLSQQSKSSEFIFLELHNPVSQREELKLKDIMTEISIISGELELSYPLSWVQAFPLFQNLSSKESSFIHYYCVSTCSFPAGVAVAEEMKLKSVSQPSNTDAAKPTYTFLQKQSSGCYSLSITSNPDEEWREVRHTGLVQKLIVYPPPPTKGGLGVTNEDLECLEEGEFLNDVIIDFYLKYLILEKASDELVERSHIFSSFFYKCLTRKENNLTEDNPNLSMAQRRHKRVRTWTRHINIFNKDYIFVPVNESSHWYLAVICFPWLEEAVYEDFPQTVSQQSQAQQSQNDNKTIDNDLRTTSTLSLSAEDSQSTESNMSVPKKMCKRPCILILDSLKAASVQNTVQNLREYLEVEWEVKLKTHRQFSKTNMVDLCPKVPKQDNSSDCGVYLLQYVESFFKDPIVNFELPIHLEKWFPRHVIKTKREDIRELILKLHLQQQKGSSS
The test is classed as functional.

Test [5] in a line: Luminescence Cell-Based Dose Confirmation to Identify Activators of 5'UTR Stem-Loop Driven Alpha-Synuclein mRNA Translation in H4 Neuroglioblastoma Cells. [Related pubchem assays: 1829 (Project Summary), 1814 (Primary HTS)]. The test is classed as functional.
The target of test [6] is T4, Sentrin-specific protease 8 (Homo sapiens, UniProt Q96LD8).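 Also: luminescence read-out of SENP8 inhibition, dose-response confirmation following an ultra-high-throughput screen.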
T4 sequence (Q96LD8 whole entry): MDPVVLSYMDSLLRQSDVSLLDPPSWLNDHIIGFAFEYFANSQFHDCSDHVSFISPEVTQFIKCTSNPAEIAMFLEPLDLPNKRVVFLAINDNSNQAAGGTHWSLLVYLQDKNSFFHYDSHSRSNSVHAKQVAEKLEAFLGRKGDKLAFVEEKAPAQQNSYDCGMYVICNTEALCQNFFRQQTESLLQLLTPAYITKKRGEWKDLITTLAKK
The test is classed as functional.

Test [7] in a line: Luminescence Cell-Based Dose Response to Identify Activators of Luciferase Translation or Activity in H4-C Neuroglioblastoma Cells. [Related pubchem assays: 1829 (Project Summary), 1814 (Primary HTS)]. It counts as functional.
Test [8] can be described thus: Luminescence Cell-Based Dose Response to Identify Activators of 5'UTR Stem-Loop Driven Prion Protein mRNA Translation in H4-C Neuroglioblastoma Cells. [Related pubchem assays: 1829 (Project Summary), 1814 (Primary HTS)]. It counts as functional.
Test [9] addresses T5, E3 ubiquitin-protein ligase XIAP (Homo sapiens, UniProt P98170). The experiment in a line: Counter Screen using XIAP-Bir3 for Chemical Antagonists of Bir1/2 domains of IAP-family anti-apoptotic proteins. [Related pubchem assays (depositor defined):AID1018, AID1449, AID1514, AID1638, AID1749, AID1750, AID488957, AID488963]. A general note: The purpose of a counterscreen is to sort out artefacts and off-target activity.

For test [10], the target named is T5, E3 ubiquitin-protein ligase XIAP. The experiment in a line: XIAP antagonists, biochemical, IAP family, fluorescence polarization (AID 1018). The test is classed as functional. On the technique in general: Fluorescence polarisation rises when a labelled molecule tumbles more slowly, as on binding a larger partner.
Test [11] concerns the target T6, Tyrosine-protein phosphatase non-receptor type 7 (Homo sapiens, UniProt P35236).
T6 sequence (P35236 whole entry): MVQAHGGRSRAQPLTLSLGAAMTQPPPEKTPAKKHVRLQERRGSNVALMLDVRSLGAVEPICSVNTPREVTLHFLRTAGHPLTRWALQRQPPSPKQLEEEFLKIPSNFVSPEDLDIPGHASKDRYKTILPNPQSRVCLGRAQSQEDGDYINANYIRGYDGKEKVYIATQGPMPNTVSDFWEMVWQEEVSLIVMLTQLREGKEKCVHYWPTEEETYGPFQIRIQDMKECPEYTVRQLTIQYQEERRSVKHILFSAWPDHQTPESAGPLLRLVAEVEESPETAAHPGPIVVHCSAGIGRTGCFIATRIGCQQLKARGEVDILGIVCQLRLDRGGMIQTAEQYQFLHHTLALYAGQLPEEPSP
The experiment in a line: redox-dependent HePTP inhibition, mechanism study, biochemical, fluorescence (AID 2068). The test is classed as functional.

A short description of test [12]: cytotoxicity toward NIH3T3 fibroblasts, dose response, counter-screen, cell-based, ATP luminescence, mouse fibroblasts (AID 2010).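 Also: cells exposed to compound for about 90 hours before reading.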 It counts as functional.
The nature of test [13]: inhibitors of intracellular T. cruzi replication, confirmation, NIH3T3 host cells, beta-gal luminescence (AID 2044).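 Also: intracellular parasites grown in NIH/3T3 mouse fibroblasts as host cells; luminescent beta-galactosidase reporter signal from transgenic T. cruzi replicating inside host cells; inhibitors lower the luminescence signal.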 It counts as functional, cell-based.
Test [14] can be described thus: THP-1 cell cytotoxicity, dose response, cytotoxicity control for Vif-APOBEC3G degradation inhibitor project, THP-1 cells (AID 1117359). The following applies: Human immunodeficiency virus 1, THP-1. It counts as functional.
Test [15] in a line: HEp-2 cell cytotoxicity, dose response, cytotoxicity control for RSV inhibitor project, HTS (AID 2410). The test is classed as functional. The settings on record: human respiratory syncytial virus.

T5 sequence (P98170 whole entry): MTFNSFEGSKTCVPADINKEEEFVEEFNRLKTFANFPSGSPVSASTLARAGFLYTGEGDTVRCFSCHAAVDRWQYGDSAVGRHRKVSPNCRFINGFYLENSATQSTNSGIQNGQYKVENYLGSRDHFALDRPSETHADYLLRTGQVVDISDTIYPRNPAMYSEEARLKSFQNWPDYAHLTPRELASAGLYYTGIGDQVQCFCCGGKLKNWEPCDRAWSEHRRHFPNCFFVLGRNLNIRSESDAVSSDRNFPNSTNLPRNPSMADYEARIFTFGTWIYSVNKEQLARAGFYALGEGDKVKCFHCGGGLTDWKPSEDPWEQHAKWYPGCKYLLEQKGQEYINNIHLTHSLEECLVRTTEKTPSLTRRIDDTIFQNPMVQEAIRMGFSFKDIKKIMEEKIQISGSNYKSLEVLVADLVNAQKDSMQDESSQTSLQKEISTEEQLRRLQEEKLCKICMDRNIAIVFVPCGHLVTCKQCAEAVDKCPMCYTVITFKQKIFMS
Sequence of G-protein coupled receptor 55 (Q9Y2T6 whole entry): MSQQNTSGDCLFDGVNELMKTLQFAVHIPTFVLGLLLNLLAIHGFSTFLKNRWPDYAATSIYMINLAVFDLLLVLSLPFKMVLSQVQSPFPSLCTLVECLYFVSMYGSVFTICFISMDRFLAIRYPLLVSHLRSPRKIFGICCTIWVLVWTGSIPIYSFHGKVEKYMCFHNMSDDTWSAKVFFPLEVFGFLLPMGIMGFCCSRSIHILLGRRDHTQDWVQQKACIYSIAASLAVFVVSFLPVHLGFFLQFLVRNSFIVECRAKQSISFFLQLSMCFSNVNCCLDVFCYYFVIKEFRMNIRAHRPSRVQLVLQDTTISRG

`CC1CC(N(C(=O)c2ccco2)c2ccccc2)c2ccccc2N1C(=O)c1ccco1` (centres undefined): the IC50 in [1] was 5.52 µM (active).
As to `CCCCN(C)Cc1cc(=O)oc2cc3c(cc12)CCCC3`, the half-maximal cytotoxic concentration (CC50) in test [2] was > 40 µM (active).
Regarding `Cc1cccc(-c2cc3nc4c(c(N5CCOCC5)n3n2)CCCC4)c1`, the IC50 is 12.4 µM (active) on Caspase-3, 18.5 µM (active) in test [3], 12.9 µM (active) in [4] and 19.4 µM (active) in [6]. The EC50 is < 0.1 µM (active) with H4, 0.228 µM (active) in test [5], 0.514 µM (active) in test [7] and 0.734 µM (active) in test [8].
For `C=CCn1c(SCC(=O)NCc2ccco2)nnc1-c1ccc2ccccc2n1`, the IC50 is > 100 µM (inactive) in test [9] and > 100 µM (not active) in test [10].
Consider `O=C(Nc1ccc(Cl)cc1)Nc1ccc2nc(-c3ccco3)c(-c3ccco3)nc2c1`, for which the IC50 in [11] is 0.949 µM (active).
Regarding `CCOC(=O)c1c(CSC(=N)N)n(C)c2cc(Br)c(OC(C)=O)cc12`, in test [1], the IC50 is 1.22 µM (active).
For the compound `CCn1c(=O)c2cc(C(=O)N(C)c3ccccc3F)sc2c2ccccc21`, the values for the EC50 in test [12] and in test [13] were > 30 µM (not active) and 1.04 µM (active), respectively. Further, the CC50 in test [2] and in test [14] was > 40 µM (active) in each case.
Regarding `O=C(Nc1ccc(Cl)cc1)N(Cc1cccnc1)Cc1ccco1`, the values for the IC50 in test [9] and in test [10] were > 100 µM (inactive) and > 100 µM (not active), respectively. Further, the EC50 in test [12] is > 30 µM (not active); in test [13], 1.1 µM (active).
`COc1ccccc1NC(=O)CCn1c(=O)c2cccn2c2ccccc21`: the CC50 in test [15] is > 50 µM (active). Besides, the IC50 in “cells” was 43.8 µM (active).
`O=C1CSC(c2ccccc2Br)N1c1ccc(Cl)cn1` (centres undefined): the IC50 in [1] is 4.58 µM (active).
Take `Cc1ccc(Cn2c(SCC(=O)N3CC(=O)Nc4ccccc43)nc3ccccc3c2=O)cc1`: the CC50 in test [15] is 40.2 µM (active). Moreover, in the test “cells”, the IC50 was 42 µM (active).
In the case of `COc1cc2c(cc1OC)-c1cc(NC3CCCC3)nc(=O)n1CC2`, the results for the IC50 in test [9] and in test [10] were > 100 µM (inactive) and > 100 µM (not active), respectively.
Regarding `O=C(Nc1ccc(F)cc1)c1ccccc1CC[N+](=O)[O-]`, the IC50 in [9] is > 100 µM (inactive); in test [10], > 100 µM (not active).
Regarding `Cc1ccc2cc(CN(Cc3ccco3)C(=O)c3ccco3)c3nnnn3c2c1`, the 50% cytotoxic concentration (CC50) in test [15] was > 50 µM (active). In “cells”, the IC50 was 44.3 µM (active).
With `Cc1nc(SCC(=O)NCc2ccco2)c2c3c(sc2n1)CCCC3`, the CC50 in test [2] is 19.8 µM (active).
